89 compounds from a melting point compilation (Tetko et al.; mined from patent text by program, amines drawn as free bases though some values may be those of a salt) can be followed below.

Some results are limits rather than exact numbers.

Regarding `CCOC(=O)c1c(CN(CC)CC)nc2sc3c(c2c1-c1ccc(OC)c(OC)c1)CCNC3`, the melting point fell in the range of 72 to 75 °C.
For `COc1ccc(C(c2ccc(F)cc2)C(c2ccc(OC)cc2)C(F)(F)F)cc1` (centres undefined) the value was 132 to 135 °C; for `COC(=O)c1sc(S(C)(=O)=O)cc1O`, 138 to 140 °C; for `Cc1cc(-c2cc(C(F)(F)F)n3ncc(-c4nc(-c5cnc(N)nc5)no4)c3n2)ccc1C(F)(F)F`, 272 °C.
For `O=C(NCc1ccc([N+](=O)[O-])cc1)C(F)(F)F` the value was 97 to 98 °C; for `O=C1N(c2ccccc2Br)Cc2cnc(Nc3ccccc3)nc2N1CC1CCCCC1`, 200 to 202 °C; for `CC(C)CCSc1cc(C(=O)O)cc(N)c1Oc1ccccc1`, 132 to 133 °C.
To `CC1Cc2ccc(O)cc2C1(C)C` (centres undefined) belongs 66 to 67 °C.
On to `CC(C)(C)OC(=O)C=Cc1cc2ccccc2o1`, for which the melting point was 56 to 57 °C.
To `O=C(C=Cc1ccc(CNC2CC2)cc1)Nc1ccc(-c2ccc(Cl)cc2)cc1` belongs 222 to 223 °C.
For `Cc1nc(N)ccc1-c1ccncc1` the value was 207 to 209 °C; for `COc1cccc2c1cc(C(=O)OCc1ccccc1)n2CC(=O)OC(C)(C)C`, 96 to 98 °C.
For `O=S(=O)(NCc1ccnnc1)c1cc(Br)cs1` the value was 120 to 122 °C; for `CC[C@@H]1NC(=O)C(F)(F)[C@@H]1O`, 118 to 121 °C; for `CN1C2CCC1CC(O)(c1ccc(Cl)c(Cl)c1)C2` (centres undefined), 153 to 154 °C.
In the case of `COCOc1c(NC(=O)N(CCCCCC(=O)O)c2ccccc2)cc(OC)cc1C(C)(C)C`, the melting point was in the range of 109 to 111 °C.
To `COn1c(C)nc2c(NCc3c(C)cccc3C)cc(C(=O)N(C)C)cc21` belongs 128 to 129 °C; to `NS(=O)(=O)c1cccc(NC(=O)c2cnn3ccc(-c4ccc(Cl)cc4)nc23)c1`, 345 °C; to `CCc1cc2c(s1)-n1c(C3CCCCC3)nnc1C(N)N=C2c1ccccc1Cl` (centres undefined), 175 to 176 °C.
For `OC1(c2ccc(C(F)(F)F)cc2)CCN(CCCc2noc3cc(F)ccc23)CC1` the value was 150 to 152 °C; for `N#Cc1c2[nH]c(C(=O)O)cc(=O)c2cc2c(=O)cc(C(=O)O)[nH]c12`, > 320 °C.
To `CN(C)c1nccc(N2CCN(C=O)CC2)n1` belongs 116 °C.
For `O=S(=O)(c1cccc2ccccc12)c1n[nH]c2ccc(OCC3CCNCC3)cc12`, the melting point was 175 to 177 °C.
For `CC(C)C[C@H](NC(=O)[C@H](Cc1c[nH]c2ccccc12)NC(=O)OC(C)(C)C)C(=O)CCl` the value was 140 to 141 °C; for `Clc1ccc(C2=NNCC2n2cc(Cl)cn2)cc1` (centres undefined), 176 °C.
For `O=C(c1cnc(N2CCCC2)c(OCC2CCCC2)n1)N1CCCCC1` the value was 61 to 62 °C.
To `CCOCn1cc(F)c(=O)n(C(=O)c2cccc(C(=O)Oc3nc(OC(=O)c4ccc(Cl)cc4Cl)ccc3C#N)c2)c1=O` belongs 140 to 142 °C; to `COc1ccc(OC)n2nc(S(=O)(=O)Nc3c(F)cccc3F)nc12`, 319 to 320 °C; to `CN(CCCCNC(=NCCCOc1cccc(CN2CCCCC2)c1)NC#N)CCC(c1ccc(F)cc1)c1ccccn1` (centres undefined), 105 to 110 °C.
The compound `OCCCc1cc2c(cc1O)CCO2` registered a melting point of 103 to 104 °C.
As for `Cc1ccccc1-n1c(C)nc2cscc2c1=O`, the melting point lay in the range of 122 to 123 °C.
For `Cc1cccc(-c2nc3ccc(Cl)cn3c2-c2ccnc(-c3ccc(CN4CCCC4)cc3)c2)n1` the value was 134 °C; for `Cc1ccc(Cl)c2[nH]c(=O)oc(=O)c12`, 248 to 250 °C; for `CCCC1=C(C(=O)OCC)C(c2cccc3nonc23)c2c[nH]nc2N1` (centres undefined), 207 °C.
To `CCCc1c2c(c(OC)c3c(=O)cc(C(=O)OC)oc13)CCCC2` belongs 92 to 93 °C; to `NCCN1CCC(Nc2nc3cccnc3n2Cc2ccccn2)CC1`, 151 °C; to `Cc1oc(-c2ccccc2)nc1CCc1ccc(C=CC=O)cc1`, 99 to 100 °C.
For `C#CC(=O)NC[C@@H]1CN2C(=O)C[C@H]2O1` (racemic) the value was 76.5 to 78 °C.
Take `CCOCc1nc2c(N)nc3ccccc3c2n1CCCCCC(=O)N1CCOCC1`: the melting point lay in the range of 160 to 162 °C.
`c1ccc(C(c2ccccc2)N2CCN(CCCn3c(C4CCCCC4)nc4ccccc43)CC2)cc1` showed a melting point of 115 °C.
For `CCOC(=O)C(=O)c1csc(NC(c2ccccc2)c2ccccc2)n1` the value was 82 to 85 °C.
For `CC1=C(C(=O)NC(C)(C)C)C(c2ccccc2Cl)C(C(=O)OC(C)C)=C(COCCCc2nc3ccccc3n2C)N1` (centres undefined) the value was 216 °C; for `CCCCCCCCCCCCCC[C@]1(C)OO[C@@H]2C[C@H]1CC(=O)[C@@H]2C`, 46 °C; for `O=C(OCc1ccccc1)c1ccc(O)cc1O`, 83 to 88 °C.
`Fc1ccc(C(c2ccccc2Cl)N2CCN(CCCOC(c3ccccc3)c3ccccc3)CC2)cc1` (centres undefined): the melting point lay within 98 to 99 °C.
For `Cc1ccc(S(=O)(=O)Oc2ccc3nc(S(N)(=O)=O)sc3c2)cc1` the value was 142 °C; for `CCCC(=O)c1cnc2c(C)cccc2c1Nc1ccc(Cl)cc1Cl`, 169 to 170 °C; for `O=C(NCCN1CCCCC1n1c(=O)[nH]c2ccccc21)c1cccc(F)c1` (centres undefined), 226 °C.
To `CN(C)S(=O)(=O)CCc1ccccc1S(N)(=O)=O` belongs 134 to 136 °C; to `O=c1c(Cc2cccnc2)cn2c3cc(F)ccc3c3cc(OCCCO)cc1c32`, 204 to 209 °C; to `COc1cc(CC(=O)N[C@@H](COC(=O)C(C)(C)C)Cc2ccccc2)ccc1OCCN=[N+]=[N-]`, 77 to 80 °C.
For `CSc1nn(-c2c(Cl)cc(C(F)(F)F)cc2Cl)c(N)c1S(=O)(=O)c1cccc(C(F)(F)F)c1` the value was 201 to 203 °C; for `O=C(O)COc1cc(Cl)ccc1C(=O)NCc1cc(C(F)(F)F)cc(C(F)(F)F)c1`, 191 to 193 °C; for `CCCCc1ccc(N2C(=O)CN(Cc3ccccc3)C2=S)cc1`, 149 to 151 °C.
`O=C(CCC1CCN(Cc2ccccc2)CC1)c1ccc(F)cc1` registered a melting point of 65 to 67 °C.
For `COP(=O)(CC(O)c1c(C)cc(C)cc1-c1ccc(F)c(C)c1)OC` (centres undefined) the value was 98 to 100 °C; for `CC(=O)C(CSC(=S)N(C)C)=C(C)O`, 70 to 72 °C; for `COC1=CC(=O)N(CC(=O)OCc2ccccc2)C1`, 129 to 130 °C.
To `Cc1cc(Br)c(Cl)c(Cl)c1N` belongs 66 to 68 °C; to `CC1CN(c2cc3c(cc2F)c(=O)c(C(=O)O)cn3CCF)CCN1` (centres undefined), 226 to 227 °C.
For `CS(=O)(=O)c1ccc(-n2nc(C(F)(F)F)cc2-c2ccc(-c3ccoc3)cc2)cc1F` the value was 74 to 76 °C; for `O=C1C(=O)c2ccccc2C2=C1SCC1(CCN(C(=O)C=Cc3ccccc3Cl)CC1)O2`, 110 to 115 °C; for `Cc1c(C=O)c2c(c(C)c1NC(=O)CC(C)(C)C)CC(C)(C)O2`, 180 to 181 °C.
`CCCOc1ccc(-c2ccc3c(c2)C=C(C(=O)Nc2ccc(CN(C)C4CCOCC4)cc2)CCS3(=O)=O)cc1` gave a melting point of 244 to 247 °C.
To `CC(C)(C(=O)Nc1cc(F)ccc1F)N1COC(C=O)=C(c2ccccc2)C1=O` belongs 76 to 77.5 °C.
For `COC1CC(N)(C(=O)O)C2C(C(=O)O)C12` (centres undefined) the value was > 275 °C; for `CN1Cc2c(C#N)ncn2-c2cccc(Cl)c2C1=O`, 238 to 240 °C; for `CCOCn1c(-c2ccc(Cl)cc2)c(C(N)=O)c(Br)c1C(F)(F)F`, 163 to 172 °C.
To `Fc1ccc(-c2nn3c(c2-c2ccncc2)NNCC3)cc1` belongs 233 to 235 °C; to `CCOC(=O)C(OC)C(=O)Nc1cccc(Cl)c1` (centres undefined), 43.5 to 46.5 °C.
Regarding `COC(OC)c1ncc[nH]1`, the melting point turned out to be 122 °C.
To `O=C(c1ccccc1)c1ccc(SCC(O)CO)cc1` (centres undefined) belongs 86 to 88 °C; to `CS(=O)(=O)c1ccc(C2=C(c3ccccc3)C(=O)C3(CCCCC3)O2)cc1`, 126 to 127 °C.
`Cc1nc(-c2ccc(-c3ccc(C(=O)Nc4ccc5c(c4)OC(CN(C)C)CO5)cc3)c(C)c2)no1` (centres undefined) displayed a melting point of 92 to 94 °C.
For the compound `COC(=O)c1c(N)n(C)c2ccccc12`, the melting point fell in the range of 192 to 196 °C.
To `Cc1c(NC(=O)CC(C)(C)C)cc2c(c1C)OC(C)(C)C2(O)c1ccco1` (centres undefined) belongs 108 to 110 °C; to `CCn1cc(CN(C(=O)C2CCCc3cc(OC)ccc32)c2ccc(C(C)C)cc2)cn1` (centres undefined), 111 to 113 °C; to `CCCCCCS(=O)c1c(O)cc(C)oc1=O` (centres undefined), 59 to 60 °C.
For `OC(CCCCCCCCCOCc1ccccc1)c1ccc(OCc2ccccc2)c(OCc2ccccc2)c1` (centres undefined) the value was 45 to 47 °C; for `COc1cc(OCC(CO)CO)c(-c2cccs2)cc1C=O`, 144 to 145 °C.
For `CCSN(C)C(=O)Nc1ccc(OC)c(Cl)c1` the value was 60 °C; for `O=C1CCC(c2ccc(OC(F)(F)F)cc2)N1` (centres undefined), 105 to 106 °C; for `O=C(Nc1cc(Cl)cc(Cl)c1)c1ccccc1O`, 218 to 219 °C.
In turn, `O=C(Nc1ccc(SC(F)(F)F)cc1)c1ccc2c(c1O)CCCC2` had a melting point of 167 °C.
For `CCCN(CC)C(C)CN1CCc2c(c(=O)oc3cc(OC)c(OC)cc23)C1` (centres undefined) the value was 93 to 96 °C; for `N#Cc1cnc2c(oc3ccccc32)c1O`, > 310 °C.
Regarding `Cn1ncc(N2CCNCC2)c(Cl)c1=O`, the melting point lay in the range of 83 to 87 °C.
To `CCCCc1nc(Cl)c(/C=C(\Cc2ccccc2)C(=O)O)n1Cc1ccc(-c2c(O)c(=O)c2=O)cc1` belongs 155 to 160 °C.
For `O=c1oc(C(Cl)Cl)nc2c(C(F)(F)F)cccc12` the value was 179 °C.
